Legend:
Assay type in all cases: cell-based
Proteus mirabilis = experiment: MIC against Gram-negative bacteria: Proteus mirabilis
Method in brief: (§1)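 First, colonies from LB agar were grown in LB at 37° C, 185 rpm, to McFarland turbidity 0.5, then centrifuged and resuspended in fresh LB. Next, wells received 5×10^5 CFU/mL bacteria plus two-fold serially diluted EGF domain protein (triplicate). Finally, plates were shaken at 37° C and the no-growth concentration taken as MIC.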

Pseudomonas aeruginosa = experiment: MIC against Gram-negative bacteria: Pseudomonas aeruginosa
Method in brief: as §1

E. coli DH5α = experiment: Antibacterial activity: MIC and growth curve against E. coli DH5α in 96-well plate; settings: minimal inhibitory concentration against E. coli DH5α; 96-well plate, 5×10^5 CFU/mL, 37° C., judged after 8 h
Method in brief: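 Log-phase bacteria (OD600 ~0.5) resuspended in LB at 5×10^5 CFU/mL, exposed to recombinant protein at 50, 25, 12.5 μg/mL final in triplicate, 37 °C shaking at 175 rpm. OD600 read every 30 min; MIC is lowest concentration showing no growth.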

Moraxella catarrhalis = experiment: MIC against Gram-negative bacteria: Moraxella catarrhalis
Method in brief: as §1

Aeromonas hydrophila = experiment: MIC against Gram-negative bacteria: Aeromonas hydrophila
Method in brief: as §1

Enterobacter cloacae = experiment: MIC against Gram-negative bacteria: Enterobacter cloacae
Method in brief: as §1

E. coli BL21 = experiment: MIC against Gram-negative bacteria: E. coli BL21
Method in brief: as §1

Proteus vulgaris = experiment: MIC against Gram-negative bacteria: Proteus vulgaris
Method in brief: as §1

Klebsiella pneumonia = experiment: MIC against Gram-negative bacteria: Klebsiella pneumonia
Method in brief: as §1

Citrobacter diversus = experiment: MIC against Gram-negative bacteria: Citrobacter diversus
Method in brief: as §1

Serratia marcescens = experiment: MIC against Gram-negative bacteria: Serratia marcescens
Method in brief: as §1

[1] = Proteus mirabilis, 5×10^5 CFU/mL, 10 h cultivation at 37° C.
[2] = Pseudomonas aeruginosa, 5×10^5 CFU/mL, 10 h cultivation at 37° C.
[3] = Moraxella catarrhalis, 5×10^5 CFU/mL, 10 h cultivation at 37° C.
[4] = Aeromonas hydrophila, 5×10^5 CFU/mL, 10 h cultivation at 37° C.
[5] = Enterobacter cloacae, 5×10^5 CFU/mL, 10 h cultivation at 37° C.
[6] = E. coli BL21, 5×10^5 CFU/mL, 10 h cultivation at 37° C.
[7] = Proteus vulgaris, 5×10^5 CFU/mL, 10 h cultivation at 37° C.
[8] = Klebsiella pneumonia, 5×10^5 CFU/mL, 10 h cultivation at 37° C.
[9] = Citrobacter diversus, 5×10^5 CFU/mL, 10 h cultivation at 37° C.
[10] = Serratia marcescens, 5×10^5 CFU/mL, 10 h cultivation at 37° C.
[11] = P. mirabilis, 10 h cultivation at 37° C., 5×10^5 CFU/mL
[12] = P. aeruginosa, 10 h cultivation at 37° C., 5×10^5 CFU/mL
[13] = M. catarrhalis, 10 h cultivation at 37° C., 5×10^5 CFU/mL
[14] = A. hydrophila, 10 h cultivation at 37° C., 5×10^5 CFU/mL
[15] = E. cloacae, 10 h cultivation at 37° C., 5×10^5 CFU/mL
[16] = E. coli BL21, 10 h cultivation at 37° C., 5×10^5 CFU/mL
[17] = P. vulgaris, 10 h cultivation at 37° C., 5×10^5 CFU/mL
[18] = K. pneumonia, 10 h cultivation at 37° C., 5×10^5 CFU/mL
[19] = C. diversus, 10 h cultivation at 37° C., 5×10^5 CFU/mL
[20] = S. marcescens, 10 h cultivation at 37° C., 5×10^5 CFU/mL
[21] = 10 h cultivation at 37° C., 5×10^5 CFU/mL, two-fold serial dilution

## PRT1410 (IEGCPGLCNSNGRCTLDQNGWHCVCQPGWRGAGCD; listed as Homo sapiens)
Proteus mirabilis; [1]
  MIC against P. mirabilis: 50 µg/mL
Pseudomonas aeruginosa; [2]
  MIC against P. aeruginosa: 25 µg/mL
E. coli DH5α
  MIC: 25 µg/mL
Moraxella catarrhalis; [3]
  MIC against M. catarrhalis: 100 µg/mL
Aeromonas hydrophila; [4]
  MIC against A. hydrophila: 12.5 µg/mL
Enterobacter cloacae; [5]
  MIC against E. cloacae: 25 µg/mL
E. coli BL21; [6]
  MIC against E. coli BL21: 12.5 µg/mL
Proteus vulgaris; [7]
  MIC against P. vulgaris: 12.5 µg/mL
Klebsiella pneumonia; [8]
  MIC against K. pneumonia: 50 µg/mL
Citrobacter diversus; [9]
  MIC against C. diversus: 50 µg/mL
Serratia marcescens; [10]
  MIC against S. marcescens: 12.5 µg/mL

## PRT94 (DVNECNAHPCFPRVRCINTSPGFRCEACPPGYSGPTHQGVGLAFAKANKQVCT; listed as Homo sapiens)
Proteus mirabilis; Proteus mirabilis, 96-well plate, 5×10^5 CFU/mL, 37° C., 10 h
  MIC (μg/mL) P. mirabilis: 12.5 µg/mL
Pseudomonas aeruginosa; Pseudomonas aeruginosa, 96-well plate, 5×10^5 CFU/mL, 37° C., 10 h
  MIC (μg/mL) P. aeruginosa: 12.5 µg/mL
E. coli DH5α
  MIC: 12.5 µg/mL
Moraxella catarrhalis; Moraxella catarrhalis, 96-well plate, 5×10^5 CFU/mL, 37° C., 10 h
  MIC (μg/mL) M. catarrhalis: 25 µg/mL
Aeromonas hydrophila; Aeromonas hydrophila, 96-well plate, 5×10^5 CFU/mL, 37° C., 10 h
  MIC (μg/mL) A. hydrophila: 12.5 µg/mL
Enterobacter cloacae; Enterobacter cloacae, 96-well plate, 5×10^5 CFU/mL, 37° C., 10 h
  MIC (μg/mL) E. cloacae: 50 µg/mL
E. coli BL21; E. coli BL21, 96-well plate, 5×10^5 CFU/mL, 37° C., 10 h
  MIC (μg/mL) E. coli BL21: 12.5 µg/mL
Proteus vulgaris; Proteus vulgaris, 96-well plate, 5×10^5 CFU/mL, 37° C., 10 h
  MIC (μg/mL) P. vulgaris: 25 µg/mL
Klebsiella pneumonia; Klebsiella pneumonia, 96-well plate, 5×10^5 CFU/mL, 37° C., 10 h
  MIC (μg/mL) K. pneumonia: 12.5 µg/mL
Citrobacter diversus; Citrobacter diversus, 96-well plate, 5×10^5 CFU/mL, 37° C., 10 h
  MIC (μg/mL) C. diversus: 50 µg/mL
Serratia marcescens; Serratia marcescens, 96-well plate, 5×10^5 CFU/mL, 37° C., 10 h
  MIC (μg/mL) S. marcescens: 50 µg/mL

## PRT203 (CSPAFCNKRGICNNKHHCHCNYLWDPPNCL; listed as Homo sapiens)
Proteus mirabilis; [11]
  MIC (μg/mL) P. mirabilis: 50 µg/mL
Pseudomonas aeruginosa; [12]
  MIC (μg/mL) P. aeruginosa: 12.5 µg/mL
E. coli DH5α
  MIC: 12.5 µg/mL
Moraxella catarrhalis; [13]
  MIC (μg/mL) M. catarrhalis: 25 µg/mL
Aeromonas hydrophila; [14]
  MIC (μg/mL) A. hydrophila: 25 µg/mL
Enterobacter cloacae; [15]
  MIC (μg/mL) E. cloacae: 12.5 µg/mL
E. coli BL21; [16]
  MIC (μg/mL) E. coli BL21: 25 µg/mL
Proteus vulgaris; [17]
  MIC (μg/mL) P. vulgaris: 25 µg/mL
Klebsiella pneumonia; [18]
  MIC (μg/mL) K. pneumonia: 25 µg/mL
Citrobacter diversus; [19]
  MIC (μg/mL) C. diversus: 50 µg/mL
Serratia marcescens; [20]
  MIC (μg/mL) S. marcescens: 50 µg/mL

## PRT1362 (GKPTCPHACHTQGRCEEGQCVCDEGFAGVDCS; listed as Homo sapiens)
Proteus mirabilis; [1]
  MIC against P. mirabilis: 12.5 µg/mL
Pseudomonas aeruginosa; [2]
  MIC against P. aeruginosa: 50 µg/mL
E. coli DH5α
  MIC: 12.5 µg/mL
Moraxella catarrhalis; [3]
  MIC against M. catarrhalis: 50 µg/mL
Aeromonas hydrophila; [4]
  MIC against A. hydrophila: 50 µg/mL
Enterobacter cloacae; [5]
  MIC against E. cloacae: 12.5 µg/mL
E. coli BL21; [6]
  MIC against E. coli BL21: 25 µg/mL
Proteus vulgaris; [7]
  MIC against P. vulgaris: 12.5 µg/mL
Klebsiella pneumonia; [8]
  MIC against K. pneumonia: 25 µg/mL
Citrobacter diversus; [9]
  MIC against C. diversus: 12.5 µg/mL
Serratia marcescens; [10]
  MIC against S. marcescens: 12.5 µg/mL

## PRT233 (DSRGCARWCPQDSSCVNATACRCNPGFSSFSEIITTPMETCD; listed as Homo sapiens)
Proteus mirabilis; [11]
  MIC (μg/mL) P. mirabilis: 100 µg/mL
Pseudomonas aeruginosa; [12]
  MIC (μg/mL) P. aeruginosa: 12.5 µg/mL
E. coli DH5α
  MIC: 12.5 µg/mL
Moraxella catarrhalis; [13]
  MIC (μg/mL) M. catarrhalis: 25 µg/mL
Aeromonas hydrophila; [14]
  MIC (μg/mL) A. hydrophila: 25 µg/mL
Enterobacter cloacae; [15]
  MIC (μg/mL) E. cloacae: 12.5 µg/mL
E. coli BL21; [16]
  MIC (μg/mL) E. coli BL21: 25 µg/mL
Proteus vulgaris; [17]
  MIC (μg/mL) P. vulgaris: 25 µg/mL
Klebsiella pneumonia; [18]
  MIC (μg/mL) K. pneumonia: 25 µg/mL
Citrobacter diversus; [19]
  MIC (μg/mL) C. diversus: 12.5 µg/mL
Serratia marcescens; [20]
  MIC (μg/mL) S. marcescens: 12.5 µg/mL

## PRT1191 (AEHACTSNPCANGGSCHEVPSGFECHCPSGWSGPTCA; listed as Homo sapiens)
Proteus mirabilis; [21]
  MIC P. mirabilis: 25 µg/mL
Pseudomonas aeruginosa; [21]
  MIC P. aeruginosa: 50 µg/mL
E. coli DH5α
  MIC: 12.5 µg/mL
Moraxella catarrhalis; [21]
  MIC M. catarrhalis: 50 µg/mL
Aeromonas hydrophila; [21]
  MIC A. hydrophila: 25 µg/mL
Enterobacter cloacae; [21]
  MIC E. cloacae: 25 µg/mL
E. coli BL21; [21]
  MIC E. coli BL21: 25 µg/mL
Proteus vulgaris; [21]
  MIC P. vulgaris: 12.5 µg/mL
Klebsiella pneumonia; [21]
  MIC K. pneumonia: 25 µg/mL
Citrobacter diversus; [21]
  MIC C. diversus: 12.5 µg/mL
Serratia marcescens; [21]
  MIC S. marcescens: 50 µg/mL

## PRT901 (DINECVLSPCRHGASCQNTHGGYRCHCQAGYSGRNCE; listed as Homo sapiens)
Proteus mirabilis; P. mirabilis, 10 h cultivation at 37° C.
  MIC: 25 µg/mL
Pseudomonas aeruginosa; P. aeruginosa, 10 h cultivation at 37° C.
  MIC: 12.5 µg/mL
E. coli DH5α
  MIC: 25 µg/mL
Moraxella catarrhalis; M. catarrhalis, 10 h cultivation at 37° C.
  MIC: 50 µg/mL
Aeromonas hydrophila; A. hydrophila, 10 h cultivation at 37° C.
  MIC: 12.5 µg/mL
Enterobacter cloacae; E. cloacae, 10 h cultivation at 37° C.
  MIC: 25 µg/mL
E. coli BL21; E. coli BL21, 10 h cultivation at 37° C.
  MIC: 25 µg/mL
Proteus vulgaris; P. vulgaris, 10 h cultivation at 37° C.
  MIC: 12.5 µg/mL
Klebsiella pneumonia; K. pneumonia, 10 h cultivation at 37° C.
  MIC: 50 µg/mL
Citrobacter diversus; C. diversus, 10 h cultivation at 37° C.
  MIC: 25 µg/mL
Serratia marcescens; S. marcescens, 10 h cultivation at 37° C.
  MIC: 25 µg/mL
